Assay results reported in PubChem BioAssay (NCI).
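Values below derive from 48-hour exposures of cells grown in 96-well plates, with endpoints linearly interpolated between the two concentrations bracketing the appropriate inhibition level. TGI: concentration producing complete growth inhibition.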

How the values were obtained:
Experiment in all cases: NCI tumour cell line growth inhibition, 48 h
786-0 renal = test system: 786-0 renal
A498 renal = test system: A498 renal
A549 NSCLC = test system: A549 NSCLC
ACHN renal = test system: ACHN renal
BT-549 breast = test system: BT-549 breast
CAKI-1 renal = test system: CAKI-1 renal
CCRF-CEM leukemia = test system: CCRF-CEM leukemia
COLO 205 colon = test system: COLO 205 colon
DU-145 prostate = test system: DU-145 prostate
EKVX NSCLC = test system: EKVX NSCLC
HCT-116 colon = test system: HCT-116 colon
HCT-15 colon = test system: HCT-15 colon
HOP-62 NSCLC = test system: HOP-62 NSCLC
HOP-92 NSCLC = test system: HOP-92 NSCLC
HS 578T breast = test system: HS 578T breast
HT29 colon = test system: HT29 colon
IGROV1 ovarian = test system: IGROV1 ovarian
K-562 leukemia = test system: K-562 leukemia
KM12 colon = test system: KM12 colon
LOX IMVI melanoma = test system: LOX IMVI melanoma
M14 melanoma = test system: M14 melanoma
MALME-3M melanoma = test system: MALME-3M melanoma
MDA-MB-231 breast = test system: MDA-MB-231 breast
MDA-MB-435 = test system: MDA-MB-435
MDA-N = test system: MDA-N
MOLT-4 leukemia = test system: MOLT-4 leukemia
NCI-H226 lung = test system: NCI-H226 lung
NCI-H23 lung = test system: NCI-H23 lung
NCI-H522 lung = test system: NCI-H522 lung
NCI/ADR-RES ovarian = test system: NCI/ADR-RES ovarian
OVCAR-3 ovarian = test system: OVCAR-3 ovarian
OVCAR-4 ovarian = test system: OVCAR-4 ovarian
OVCAR-5 ovarian = test system: OVCAR-5 ovarian
OVCAR-8 ovarian = test system: OVCAR-8 ovarian
PC-3 prostate = test system: PC-3 prostate
RPMI-8226 leukemia = test system: RPMI-8226 leukemia
RXF 393 renal = test system: RXF 393 renal
SF-268 CNS = test system: SF-268 CNS
SF-295 CNS = test system: SF-295 CNS
SK-MEL-2 melanoma = test system: SK-MEL-2 melanoma
SK-MEL-28 melanoma = test system: SK-MEL-28 melanoma
SK-MEL-5 melanoma = test system: SK-MEL-5 melanoma
SK-OV-3 ovarian = test system: SK-OV-3 ovarian
SN12C renal = test system: SN12C renal
SNB-19 CNS = test system: SNB-19 CNS
SNB-75 CNS = test system: SNB-75 CNS
SW-620 colon = test system: SW-620 colon
T-47D breast = test system: T-47D breast
TK-10 renal = test system: TK-10 renal
U251 CNS = test system: U251 CNS
UACC-257 melanoma = test system: UACC-257 melanoma
UACC-62 melanoma = test system: UACC-62 melanoma
UO-31 renal = test system: UO-31 renal

Measured: TGI

Cc1ccccc1N=Nc1cc(C)c(N=Nc2c(O)ccc3ccccc23)cc1C
> 100 µM: all assays above
